# From patent US9717709B2, “Substituted pyrazoles as heat shock transcription factor activators” (Duke University, priority 2010, dated 2017)
# Legend:
# Hsp90 = assay: competitive binding assay in vitro using biotinylated geldanamycin (GD-B)
# Text: Many pharmacological inhibitors of Hsp90 such as geldanamycin and 17-AAG target the amino-terminal ATP binding pocket of Hsp90, thereby inhibiting its chaperone function. To test whether HSF1A has affinity for the Hsp90 ATP-binding pocket, we performed competitive binding assays in vitro using a biotinylated geldanamycin (GD-B) molecule. […] Because other small molecule inhibitors of Hsp90, including celastrol, novobiocin, and EGCG, are thought to bind Hsp90 at the carboxy-terminus Amolins, M and Blagg, B, Mini Rev Med Chem. 2009 9, 140-152, we ascertained whether HSF1A could bind to Hsp90 at a region outside of the ATPbinding pocket. To assay for HSF1A binding to Hsp90, we generated an HSF1A-biotin conjugate (HSF1A-B)) and assayed the ability of HSF1A-B to interact with Hsp90.
# mouse model of ALS = conditions: Kieran et al., Nature Medicine 2004; cited from earlier work
structure (smiles),measurement,setting,value
C=CCNC1=C2C[C@@H](C)C[C@H](OC)[C@H](O)[C@@H](C)/C=C(\C)[C@H](OC(N)=O)[C@@H](OC)/C=C\C=C(/C)C(=O)NC(=CC1=O)C2=O [17-AAG],competition with GD-B for Hsp90 binding,Hsp90; at 1 mM and 10 mM,able to compete
[O-][n+]1cccc(/C(Cl)=N/OC[C@H](O)CN2CCCCC2)c1 [arimoclomal],disease progression,mouse model of ALS,significantly delays disease progression
CCc1ccc(S(=O)(=O)Nc2cc(-c3cccs3)nn2-c2ccccc2)cc1 [HSF1A],competition with GD-B for Hsp90 binding,Hsp90; concentrations 100-fold higher than GD-B,unable to compete
